Patent publication US20220079962A1, “NUTRITIONAL COMPOSITION COMPRISING 2'FUCOSYLLACTOSE AND DIETARY BUTYRATE” (N.V. Nutricia, priority 2019, published 2022)

What was measured:
Caco-2 cell monolayer = test: DON-induced impairment of Caco-2 cell monolayer integrity (TEER, lucifer yellow flux); type: cell-based, human; settings: 24 h pretreatment with 0.75 wt. % GL, then DON 4.2 μM 24 h; FIGS. 1A-D
Description: Caco-2 cells were used according to established methods. In brief: cells were cultured in Dulbecco's modified Eagle medium (DMEM) and seeded at a density of 0.3×10^5 cells into 0.3 cm^2 high pore density (0.4 μm) inserts with a polyethylene terephthalate membrane (BD Biosciences, Franklin Lakes, N.J., USA) placed in a 24-well plate. The Caco-2 cells were maintained in a humidified atmosphere of 95 air and 5% CO2 at 37° C.
Caco-2 cell monolayers were thus grown in a transwell system, which is a model for intestinal barrier function. The monolayers were pretreated for 24 h with different GLs, including beta3′-GL, alpha3′-GL, beta4′-GL and beta6′-GL in a concentration of 0.75 wt. % of the GL, before being exposed to the fungal toxin deoxynivalenol (DON), which is a trigger and model compound to impair intestinal barrier. DON was diluted to a final concentration of 4.2 μM in complete cell medium and added to the apical side as well as to the basolateral side of the transwell inserts. […] Incubation with DON was 24 h.
Measurements of the transepithelial electrical resistance (TEER) and lucifer yellow (LY) permeability were conducted to investigate barrier integrity. For TEER measurements a Millicel-ERS voltohmmeter connected to a pair of chopsticks electrodes was used to measure the TEER values. Results are expressed as a percentage of the initial value. For paracellular tracer flux assay the membrane impermeable lucifer yellow (LY) (Sigma, St Louis, Mo., USA) was added in a concentration of 16 μg/ml to the apical compartment in the transwell plate for 4 h, and the paracellular flux was determined by measuring the fluorescence intensity in the basolateral compartment with a spectrophotofluorimeter (FLUOstar Optima, BMG Labtech, Offenburg, Germany) set at excitation and emission wavelengths of 410 and 520 nm, respectively. Release of interleukin-8 (IL-8 or CXCL8), which is a typical marker for inflammation, was quantified in the medium of the apical side and the basolateral side of the Caco-2 transwell inserts in response to the treatments. CXCL8 concentrations were measured by using the human IL-8 ELISA assay (BD Biosciences, Pharmingem, San Diego, Calif., USA) according to manufacturer's instructions. For more details on materials and methods see Akbari et al, 2016, Eur J Nutr. 56(5):1919-1930.

[1] = system: human peripheral blood mononuclear cells (PBMC); test: PBMC cell activity (WST-1); type: cell-based; settings: after 24 h
Description: PBMC activation model: PBMC (0.2.10^6 cell/well) were cultured in 96-well flat bottom plates (Corning). For 24 hours the cells were pre-incubated with 2′-FL (Jennewein), 3′-GL (0-0.3% w/v; […] Sigma Aldrich) and combinations thereof. Subsequently, the cells were CD3/CD28-activated (Pelicluster CD3 and Pelicluster CD28, Sanquin) for an additional 24 hours. After incubation, IFNγ was measured by ELISA in the supernatants (see below). […] Roche) and/or 10% Triton (5 μl; negative control).

[2] = system: T84 human intestinal epithelial cells; test: T84 monolayer barrier integrity (TEER) with IL-4; type: cell-based
Description: T84 human intestinal epithelial cells are commonly used to study intestinal barrier integrity in vitro. T84 cells (ATCC, USA) were cultured on 12 mm transwell inserts (0.4 μm, Corning Costrar, USA) in DMEM-F12 glutamax with penicillin-streptomycin (100 IU/ml), supplemented with 5% FBS-Hl. T84 cells were used 14 days after reaching confluence. Monolayers of T84 cultured on transwell filters were pre-incubated for 48 h with or without butyrate. These samples were subsequently incubated for an additional 48 h in the presence of IL-4 (25 ng/ml). IL-4 was added to the basolateral compartment; medium and additives were changed every 24 h.
Epithelial barrier integrity was assessed by measuring transepithelial resistance (TEER; Ω×cm^2) with the epithelial volt-ohm meter (EVOM; World Precision Instruments, Germany).

[3] = system: human peripheral blood mononuclear cells (PBMC); test: PBMC cytokine levels, unstimulated condition; type: cell-based
Excerpt: Isolation of PBMC from healthy donors: Human peripheral blood mononuclear cells (PBMC) from healthy donors were isolated from buffy coats (Sanquin, Amsterdam, the Netherlands). PBMC were obtained by centrifugation using Leucosep tubes (Greiner Bio-One). […] After lysis, the PBMC were resuspended in freezing medium (70% RPMI 1640 medium (Gibco, Thermo Fisher Technologies) supplemented with 10% heat-inactivated FCS and 100 U/ml penicillin-streptomycin, 20% heat-inactivated FCS and 10% DMSO (Sigma)) and cryopreserved. PBMC activation model: PBMC (0.2.10^6 cell/well) were cultured in 96-well flat bottom plates (Corning). For 24 hours the cells were pre-incubated with 2'-FL (Jennewein), 3'-GL (0-0.3% w/v; […] Sigma Aldrich) and combinations thereof. Subsequently, the cells were CD3/CD28-activated (Pelicluster CD3 and Pelicluster CD28, Sanquin) for an additional 24 hours. After incubation, IFNγ was measured by ELISA in the supernatants (see below). […] Roche) and/or 10% Triton (5 μl; negative control). […] Cytokine production of PBMC: PBMC were incubated with indicated reagents. After incubation, the supernatants were collected and IL2, IL6, IL10, IL13, IL21, TNFα, IFNγ, MIF, CCL1, CCL13, CCL17, CCL20, CCL22 and CXCL8-11 levels were measured by conducting a validated multiplex immunoassay based on Luminex technology (xMAP, Luminex Austin Tex. USA). Acquisition was conducted with the Biorad […] (Biorad laboratories, Hercules USA) in combination with xPONENT software version 4.2 (Luminex). Data was analyzed by 5-parametric curve fitting using Bio-Plex Manager software, version 6.1.1 (Biorad). After PBMC stimulation, cell culture supernatants were collected, after which cytokine responses were measured in order to test immune responsiveness of the cells. The levels of cytokines measured in stimulated conditions were corrected for the (low) levels of the cytokines measured in non-stimulated conditions. In addition, since each donor is reacting in its own efficiency onto the T cell stimulus, we calculated the individual index of cytokine response by dividing the intervention induced response by the basal stimulated response.

SMILES	effect on DON-induced loss of epithelial barrier integrity (TEER, LY flux) (Caco-2 cell monolayer)	Immune cell activity as measured by WST [1]	IL-4 induced disruption of intestinal barrier function [2]	IL10 level compared to blanc control ([3]; 0.2% 2′-FL, 0.2 mM butyrate)	CCL20 level compared to blanc control ([3]; unstimulated)
OC[C@H]1O[C@@H](OC[C@H]2O[C@@H](O[C@H]3[C@H](O)[C@@H](O)C(O)O[C@@H]3CO)[C@H](O)[C@@H](O)[C@H]2O)[C@H](O)[C@@H](O)[C@H]1O (stereo partly drawn) [beta6′-GL, Gal (beta 1-6)-Gal (beta 1-4)-Glc, reference compound]	did not show a significant effect				
OC[C@H]1O[C@@H](O[C@@H]2[C@H](O)[C@@H](O)[C@H](O[C@H]3[C@H](O)[C@@H](O)C(O)O[C@@H]3CO)O[C@@H]2CO)[C@H](O)[C@@H](O)[C@H]1O (stereo partly drawn) [beta4′-GL, Gal (beta 1-4)-Gal (beta 1-4)-Glc, reference compound]	did not show a significant effect				
CCCC(=O)O [butyrate, butyric acid]		did not influence immune cell metabolic activity	ameliorated	did not have an effect on IL10 levels	did not have a statistically significant effect
OC[C@H]1O[C@H](O[C@H]2[C@@H](O)[C@@H](CO)O[C@@H](O[C@H]3[C@H](O)[C@@H](O)C(O)O[C@@H]3CO)[C@@H]2O)[C@H](O)[C@@H](O)[C@H]1O (stereo partly drawn) [alpha3′-GL, Gal (alpha 1-3)-Gal (beta 1-4)-Glc, reference compound]	did not prevent the DON-induced disrupted intestinal barrier				
